Patent US8268809B2, “Kinase inhibitors for preventing or treating pathogen infection and method of use thereof” (priority 2006, dated 2012)
Entries after “also recorded” stand apart in the source; their conditions may differ.

Each compound was assayed on vaccinia virus.
Assay type: cell-based
Throughout, for VACCINIA PLAQUE ASSAY 2: test concentration or dose not given here.

SMILES | Class category of infected monolayers in plaque assay | VACCINIA PLAQUE ASSAY 2 | VACCINIA Plaque Assay | Plaque phenotype due to drug treatment (FIGS. 1, 2, 4)
COc1ccccc1Nc1cc(-c2ccc3[nH]ccc3c2)ncn1 [Eph2_wbz 216] | Class III | NO PLAQUES | SLIGHTLY SMALLER PLAQUES | 
COc1ccccc1Nc1cc(-c2ccc(NC(=O)CCC(=O)O)cc2)ncn1 [Eph2_wbz 217] |  |  | SLIGHTLY SMALLER PLAQUES | 
COc1ccccc1NS(=O)(=O)c1cccc(NC(=O)CCOc2ccc3c(=O)[nH]ccc3c2)c1 [JAK2F] | Class II | SLIGHTLY SMALLER PLAQUES | SMALL PLAQUES | 
CCN(CC)CCNC(=O)/C=C\C(=O)Nc1ccc2ncnc(Nc3cccc(I)c3)c2c1 [JGAP-11] |  |  | MORE PLAQUES THAN WT | 
CN(C)CCCNC(=O)/C=C\C(=O)Nc1ccc2ncnc(Nc3cccc(I)c3)c2c1 [JGAP-13] |  |  | MORE PLAQUES THAN WT | more plaque formations than wild type; also recorded: more plaques than WT
COc1ccc(Nc2nccn3c(Br)cnc23)cc1 [LG2-9] | Class III | PINPOINTS | SLIGHTLY SMALLER PLAQUES | 
CN(C)CCNC(=O)c1ccc(-c2cnc3c(Nc4ccc(Oc5ccccc5)cc4)nccn23)cc1 [LG2-11] | Class III | NO PLAQUES | CPE, PINPOINT PLAQUES | 
COc1ccc(Nc2nccn3c(-c4cccc(C(N)=O)c4)cnc23)cc1 [LG2-13] | Class III | SLIGHTLY SMALLER PLAQUES | PINPOINT PLAQUES | 
CC(C)c1ccc(Nc2nccn3c(Br)cnc23)cc1 [LG2-60] |  | NO PLAQUES |  | 
COc1cc(-c2cnc3c(Nc4ccccc4)nccn23)ccc1O [LG2-62] | Class II | SMALL PLAQUES | SMALLER PLAQUES THAN WT | 
O=C(Nc1cccc(-c2ccc3nnc(-c4ccco4)n3n2)c1)Sc1ccccc1 [LG2-79] | Class II | SMALL PLAQUES | SMALLER PLAQUES, COMETS? | 
COc1cccc(-c2cnc3c(Nc4ccccc4)nccn23)c1 [LG2-85] | Class III | NO PLAQUES | PINPOINT PLAQUES | 
Fc1ccc(CNc2nccn3c(Br)cnc23)cc1 [LG2-91] | Class III | NO PLAQUES | NO PLAQUES | no pinpoint plaque formed; also recorded: no plaques
Brc1cnc2c(NCc3cccs3)nccn12 [LG2-95] | Class III | NO PLAQUES | PINPOINT PLAQUES | 
O=C(NCCO)c1cccc(-c2cnc3c(NCc4ccc(F)cc4)nccn23)c1 [LG2-96] | Class III | NO PLAQUES | NO PLAQUES | no pinpoint plaque formed; also recorded: no plaques
O=C(NCCO)c1cccc(-c2cnc3c(NCc4cccs4)nccn23)c1 [LG2-98] | Class III | PINPOINTS | SMALL PLAQUES, WITH TAILS | 
Brc1cnc2c(NCC3CC3)nccn12 [LG2-101] | Class III | PINPOINTS | SMALL PLAQUES, WITH TAILS | 
COc1cc(OC)cc(-c2cnc3c(NCC4CC4)nccn23)c1 [LG2-102] | Class III | NO PLAQUES | NO PLAQUES | 
O=C(Nc1cccc(-c2ccc(Cl)nn2)c1)Oc1ccccc1 [LG2-111] |  |  | PINPOINT PLAQUES | 
Cn1c(=O)c(-c2c(Cl)cccc2Cl)cc2cnc(Nc3ccc(Br)cc3)nc21 [PD-Br] | Class III | NO PLAQUES | SMALL PLAQUES, CPE | 
Cc1ccc(NC(=O)c2ccc(CN3CCN(CCO)CC3)cc2)cc1Nc1nccc(-c2cccnc2)n1 [STI-OH] | Class III | SMALL PLAQUES | PINPOINT PLAQUES | 
Cc1ccc(NC(=O)c2ccc(CN3CCN(CCF)CC3)cc2)cc1Nc1nccc(-c2cccnc2)n1 [STLF2] | Class III | NO PLAQUES | PIN POINT PLAQUES | 

SMILES | Class category of infected monolayers in plaque assay | VACCINIA PLAQUE ASSAY 2 | VACCINIA Plaque Assay | Plaque phenotype due to drug treatment (FIGS. 1, 2, 4)
Cc1ccc(NC(=O)c2ccc(CN3CCN(Cc4ccc(I)cc4)CC3)cc2)cc1Nc1nccc(-c2cccnc2)n1 [STLL3] | Class III | NO PLAQUES | PINPOINT PLAQUES | 
Cc1ccc(NC(=O)c2ccc(CN3CCN(C)CC3)cc2)cc1Nc1nccc(-c2cnccc2C)n1 [StiAF3_Ue] | Class III | NO PLAQUES | NO PLAQUES | 
Cc1ccc(-c2ccnc(Nc3cc(NC(=O)c4ccc(CN5CCN(C)CC5)cc4)ccc3C)n2)cn1 [WBZ-4] | Class II | SMALL PLAQUES | SMALL PLAQUES | 
Cn1c(=O)c(-c2c(Cl)cccc2Cl)cc2cnc(Nc3cccc(N)n3)nc21 [YYA104] | Class III | NO PLAQUES | PINPOINT PLAQUES | 
Cn1c(=O)c(-c2c(Cl)cccc2Cl)cc2cnc(NC3CCN(Cc4ccccc4)CC3)nc21 [YYA188] | Class III | NO PLAQUES | NO PLAQUES | 
Cn1c(=O)c(-c2c(Cl)cccc2Cl)cc2cnc(Nc3ccc(O)cc3)nc21 [YYA190] |  |  | CPE (MONO- LAYER NOT INFECTED WITH VV; DRUG DE- STROYED MONO- LAYER, THOUGH) | 
Cn1c(=O)c(-c2c(Cl)cccc2Cl)cc2cnc(NC3CCCCC3)nc21 [YYA194] | Class III | NO PLAQUES | PINPOINT PLAQUES | 
Cn1c(=O)c(-c2c(Cl)cccc2Cl)cc2cnc(Nc3cccc(C(C)(C)C)c3)nc21 [YYA195] | Class III | NO PLAQUES | NO PLAQUES | 
O=C(Nc1cccc(-c2ccc(Cl)nn2)c1)c1cccc([N+](=O)[O-])c1 [YYB19] | Class III | NO PLAQUES | PINPOINT PLAQUES | 
COc1cc(C(=O)Nc2cccc(-c3ccc4nnc(-c5ccccc5)n4n3)c2)cc(OC)c1OC [YYB21] |  |  |  | damaged monolayer
O=C(Nc1cccc(-c2ccc3nncn3n2)c1)c1cccc([N+](=O)[O-])c1 [YYB31] | Class III | PINPOINTS | FEW COMETS | 
O=C(Nc1cccc(-c2ccc3nnc(-c4cccs4)n3n2)c1)c1cccc([N+](=O)[O-])c1 [YYB32] | Class III | SMALL PLAQUES | SMALLER PLAQUES | 
O=C(Nc1cccc(-c2ccc3nnc(-c4ccc[nH]4)n3n2)c1)c1cccc([N+](=O)[O-])c1 [YYB34] |  |  | LARGE COMETS | 
CCc1nnc2ccc(-c3cccc(NC(=O)c4ccc(OC)c(OC)c4)c3)nn12 [YYB41] | Class II | SMALL PLAQUES | SMALL PLAQUES | 
COc1ccc(OC)c(S(=O)(=O)Nc2cccc(-c3ccc4nnc(-c5cccs5)n4n3)c2)c1 [YYB44] | Class II | SMALL PLAQUES | MEDIUM PLAQUES | 
COC(=O)C1(Cc2ccccc2)OC(=O)C(O)=C1c1ccccc1 (centres unmarked) [butyro- lactones-1] |  |  | SMALL PLAQUES WITH LARGE TAILS OR CPE | more plaque formations than wild type; also recorded: more plaques than WT
Cc1ccc(-n2c(=O)[nH]c3c(C(N)=O)nc(-c4ccc([N+](=O)[O-])cc4[N+](=O)[O-])nc32)cc1 [dm-I-180] |  |  | LARGE TAILS | 
Cc1ccc(-n2c(=O)[nH]c3c(C(N)=O)nc(-c4ccc(-c5cccs5)s4)nc32)cc1 [dm-I-184] |  | SLIGHTLY SMALLER PLAQUES |  | 
Cc1ccc(-n2c(=O)[nH]c3c(C(N)=O)nc(-c4c(F)cc(Cl)cc4F)nc32)cc1 [dm-I-187] | Class III | NO PLAQUES | SMALL PLAQUES | small plaques with no comets; also recorded: smaller (pinpoint) plaques with no comets
Cc1ccc(-n2c(=O)[nH]c3c(C(N)=O)nc(-c4c(Cl)cccc4[N+](=O)[O-])nc32)cc1 [dm-I-193] | Class III | NO PLAQUES | SMALL PLAQUES | 
COc1ccc(-c2nc(C(N)=O)c3[nH]c(=O)n(-c4ccc(C)cc4)c3n2)cc1OC [dm-I-196] | Class III | PINPOINTS | SMALL PLAQUES, NO TAILS | small plaques with no comets; also recorded: smaller (pinpoint) plaques with no comets
Cc1ccc(-n2c(=O)[nH]c3c(C(N)=O)nc(C4CCCCC4)nc32)cc1 [dm-I-203] | Class III | PINPOINTS | SMALL PLAQUES | 
